According to patent publication US20250333398A1, “MONOARYL AND HETARYL SUBSTITUTED INDAZOLES AND BENZIMIDAZOLES AS STING ANTAGONISTS AND THE USE THEREOF AS MEDICAMENT” (Boehringer Ingelheim International GmbH, priority 2024, published 2025):

What follows are compounds tested on STING (assay: IP10 production in human dermal microvascular endothelial cells (MVEC) after double-stranded DNA stimulation). Conditions: IP10 production after dsDNA stimulation; rounded average of multiple experiments; read-out: Inhibition of Human microvascular endothelial cells (IC50 nM).
Type: cell-based
Excerpt: Interferon gamma-induced protein 10 (IP-10) also known as C—X—C motif chemokine ligand 10 (CXCL10) is produced as one of the responses of the presence of double-stranded DNA in the cytoplasm and resulting STING activity. In some diseases, imbalanced STING activation can result to damage in the endothelium, for example in SAVI patients (Liu Yet al. Activated STING in a vascular and pulmonary syndrome. N Engl J Med. 2014 Aug. 7; 371(6):507-518. doi: 10.1056/NEJMoa1312625). To test the efficacy of the inventive STING inhibitors, experiments in human microvascular endothelial cells (HMVEC) are performed with the inventive compounds. Dermal HMVEC are available from Lonza, US. They are cultured in 96 well plates according to the manufacturer's instructions. Using typical protocols, the cells are serum starved and then treated with the compound for 1 hour. The cells are then treated with 400 ng/mL of dsDNA as a complex with Lipofectamine 3000 (from Thermo Fisher Scientific Inc., Waltham, MA, USA) and incubated for 6 hours. The supernatants are collected and assayed for IP10 production.
Detection of IP10 is done using the U-PLEX HUMAN IP-10 ASSAY from Meso Scale Diagnostics (1601 Research Boulevard, Rockville, Maryland 20850-3173, USA) according to manufacturer's protocols.

Going from Cn1nc(-n2cc3c(-c4nc(-c5ccc(P(C)(C)=O)cc5OC(F)(F)F)n(C)c4C4CC4)cccc3n2)cc1C(F)(F)F [Example 20, 4-{5-cyclopropyl-2-[4-(dimethylphosphoryl)-2-(trifluoromethoxy)phenyl]-1-methyl-1H-imidazol-4-yl}-2-[1-methyl-5-(trifluoromethyl)-1H-pyrazol-3-yl]-2H-indazole] to CC[P@](C)(=O)c1ccc(-c2nc(-c3cccc4nn(-c5cc(C(F)(F)F)n(C)n5)cc34)c(C3CC3)n2C)c(OC(F)(F)F)c1 [Example 10, 4-(5-cyclopropyl-2-{4-[(S)-ethyl(methyl)phosphoryl]-2-(trifluoromethoxy)phenyl}-1-methyl-1H-imidazol-4-yl)-2-[1-methyl-5-(trifluoromethyl)-1H-pyrazol-3-yl]-2H-indazole], the IC50 falls from 33 nM to 11 nM (3-fold). The second is the more potent here.

For CC[P@](C)(=O)c1ccc(-c2nc(-c3cccc4nn(-c5cc(C(F)F)n(C)n5)cc34)c(C3CC3)n2C)c(OC(F)(F)F)c1 [Example 7, 4-(5-cyclopropyl-2-{4-[(S)-ethyl(methyl)phosphoryl]-2-(trifluoromethoxy)phenyl}-1-methyl-1H-imidazol-4-yl)-2-[5-(difluoromethyl)-1-methyl-1H-pyrazol-3-yl]-2H-indazole], the IC50 was 21 nM.
